Experimental data taken from patent US9617222B1, “Alkynyl indazole derivative and use thereof” (SENJU PHARMACEUTICAL CO., LTD., priority 2014, dated 2017).
Converted amounts (≈) assume the structure as drawn.

Columns and labels:
[1] = test system: Human Retinal Microvascular Endothelial (hRMVE) Cells (hRMVEC); test: Growth inhibition of hRMVE cells under VEGF stimulation (MTT assay); format: cell-based; conditions: recombinant human VEGF, 48 hours, read-out: Cell Growth Inhibition Activity
[2] = Solubility test in 0.1% phosphate buffer solution (pH 7.0); format: physicochemical; conditions: for solubility: aqueous buffer, thermodynamic from solid, 0.1% phosphate buffer solution (pH 7.0), room temperature overnight
Description: The mixture was subjected to ultrasonic irradiation for 30 seconds, and then shaken at room temperature overnight. The resulting suspension was left at rest at room temperature for 30 minutes, then filtered through a chromatography disc (0.20 μm) to prepare a sample solution. The sample solution and the standard solution were analyzed by LC-MS (product name: ACQUITY UPLC H-CLASS SYSTEM and Xevo TQ-S, produced by Nihon Waters K.K.), and a solubility was calculated from the obtained peak area value by an external standard method.

[3] = Drug penetrating test to retina/choroid after instillation; format: in vivo, rabbit (Japanese white rabbit); conditions: rabbit, 2 hours after instillation; for concentration at 2 h: Japanese white, retina/choroid, topical, 50 μL/eye of 0.25% suspension, 0.25% suspension eye drop 50 μL/eye, average ± standard deviation; for drug penetrating concentration in the retina/choroid compared with compound B: p≦0.05
Description: For the compounds 8, 27 and B produced in Examples, drug penetrating concentrations to retina/choroid tissues after instillation were measured. […] In order to measure the drug concentration in the retina/choroid tissues, the eye drop was administered to rabbits (Japanese white rabbit) at 50 μL/eye, the rabbits were euthanized 2 hours after instillation, and the eyeballs were excised. The excised eyeballs were frozen with liquid nitrogen, split into two parts along the equatorial plane, and then the retina/choroid tissues were sampled from the posterior eye segment. In order to extract the compound from the sampled tissues, the tissues were finely cut in methanol to prepare a lysate, and subsequently the lysate was centrifuged to collect the supernatant. To the extracted solution of the compound from the supernatant, an equivalent amount of ultrapure water was added, and the solution was filtered through a membrane filter (0.22 μm), and the filtrate was designated as a final measurement solution. The drug concentration in the filtrate was analyzed by liquid chromatography mass spectrometry (LC/MS/MS), and the compound concentration in the retina/choroid tissues was calculated from the peak area value obtained by an external standard method. Analysis conditions of LC/MS/MS are as below. For the compound concentration in the retina/choroid, null hypothesis test was carried out using JMP (registered trademark) (SAS Institute Inc.), the outlier was excluded, and then the average value±standard deviation was used.

Structure (SMILES)	IC50 [1]	solubility [2]	concentration at 2 h [3]	drug penetrating concentration in the retina/choroid compared with compound B [3]	solubility in aqueous solution (in words) ([2]; aqueous solution)	photostability in solution (in words)
CNC(=O)c1ccccc1Sc1ccc2c(C#Cc3ccc(NC(=O)NCCOCCOCCOC)cc3)n[nH]c2c1 [Compound 8, 2-[(3-{[4-(3-{2-[2-(2-methoxyethoxy)ethoxy]ethyl}ureido)phenyl]ethynyl}-1H-indazol-6-yl)thio]-N-methylbenzamide]	1.2 nM	1 µg/mL (≈ 1.7 µM)	2.6 ± 1.04 ng/g	significantly higher		
CNC(=O)c1ccccc1Sc1ccc2c(/C=C/c3ccccn3)n[nH]c2c1 [Compound A, 6-[2-(methylcarbamoyl)phenylsulfanyl]-3-E-[2-(pyridine-2-yl)ethenyl]indazole, reference compound]		0.045 µg/mL (≈ 0.116 µM)			low	poor photostability
CNC(=O)c1ccccc1Sc1ccc2c(C#Cc3ccc(NCCOCCOCCOC)cc3)n[nH]c2c1 [Compound 27, 2-[(3-{[4-({2-[2-(2-methoxyethoxy)ethoxy]ethyl}amino)phenyl]ethynyl}-1H-indazol-6-yl)thio]-N-methylbenzamide]	1.2 nM	0.48 µg/mL (≈ 0.881 µM)	1.62 ± 0.68 ng/g	significantly higher		
CNC(=O)c1ccccc1Sc1ccc2c(C#Cc3ccccn3)n[nH]c2c1 [Compound B, 6-[2-(methylcarbamoyl)phenylsulfanyl]-3-[2-(pyridine-2-yl)ethynyl]indazole, reference compound]	1.6 nM	0.084 µg/mL (≈ 0.218 µM)	0.51 ± 0.1 ng/g			
